Test results taken from US5622983A, “N-substituted cycloalkyl and polycycloalkyl α-substituted Trp-Phe- and phenethylamine derivatives” (Warner-Lambert Company, priority 1995, dated 1997).
Where two headings read alike, the source gives them in different places.

Key:
Central CCK Receptors = target: T1, Central CCK Receptors (Mus musculus, UniProt P56481); test: Binding to central CCK receptors (tritiated-pentagastrin displacement, cerebral cortical membranes)
T1 sequence (P56481 1-453): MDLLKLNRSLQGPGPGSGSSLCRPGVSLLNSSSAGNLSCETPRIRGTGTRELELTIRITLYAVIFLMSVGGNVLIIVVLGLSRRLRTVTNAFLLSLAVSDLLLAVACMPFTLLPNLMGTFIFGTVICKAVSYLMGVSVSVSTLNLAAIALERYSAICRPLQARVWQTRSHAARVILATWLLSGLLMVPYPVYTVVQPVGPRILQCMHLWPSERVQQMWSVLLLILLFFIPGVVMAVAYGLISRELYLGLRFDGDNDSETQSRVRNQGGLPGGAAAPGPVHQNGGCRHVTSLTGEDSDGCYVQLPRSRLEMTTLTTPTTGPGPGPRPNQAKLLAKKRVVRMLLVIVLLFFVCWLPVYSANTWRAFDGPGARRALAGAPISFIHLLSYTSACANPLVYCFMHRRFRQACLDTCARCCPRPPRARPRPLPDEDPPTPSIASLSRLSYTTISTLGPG

[1] = Palatable Diet Feeding assay; assay type: in vivo, rat; details: dose producing 50% of the maximum effect possible (zero food intake)
Procedure: In the Palatable Diet Feeding assay, adult male Hooded Lister rats weighing between 200-400 g were housed individually and trained to eat a palatable diet. This diet consisted of Nestles sweetened condensed milk, powdered rat food and rat water which when blended together set to a firm consistency. […] The intake of palatable diet was measured by weighing the food container before and after the 30-minute access period (limits of accuracy 0.1 g). Care was taken to collect and correct for any spillage of the diet. Rats had free access to pellet food and water except during the 30-minute test period.
After the training period, dose-response curves were constructed for CCK8 and several representative compounds of the present invention (n=8-10 rats per dose level).

[2] = read-out: Binding to Central CCK Receptors Ki, displacement of 2 nM tritiated-pentagastrin, mouse cerebral cortical membranes

| Ki (Central CCK Receptors; [2]) [nM] | SMILES | Inhibition of Feeding on Rat Palatable Diet Assay I.P. MPE50 [1] [mg/kg] | Ki (Central CCK Receptors) [nM] |
| --- | --- | --- | --- |
| 6 | CC(Cc1c[nH]c2ccccc12)(NC(=O)OC1C2CC3CC(C2)CC1C3)C(=O)NCC(NC(=O)CCc1nn[nH]n1)c1ccccc1 (stereo not drawn) [Example 33, Tricyclo[3.3.1.1^3,7]dec-2-yl [R,(R*,S*]-[1-(1H-indol-3-ylmethyl)-1-methyl-2-oxo-2-[[2-[[1-oxo-3-(1H -tetrazol-5-yl)propyl]amino]-2-phenylethyl]-amino]ethyl]carbamic acid ester] | – | – |
| 5.1 | CC(Cc1c[nH]c2ccccc12)(NC(=O)OC1C2CC3CC(C2)CC1C3)C(=O)NCC(NC(=O)C1CC1C(=O)O)c1ccccc1 (racemic) [Example 32, 2-[[[2-[[3-(1H-indol-3-yl)-2-methyl-1-oxo-2-[[(tricyclo-[3.3.1.1^3,7]dec-2-yloxy)carbonyl]amino]propyl]amino]-1-phenylethyl]amino]carbonyl]cyclopropanecarboxylic acid (cyclopropane ring is trans-(±)othercentersare R)] | – | – |
| 26 | CC(Cc1c[nH]c2ccccc12)(NC(=O)OC1C2CC3CC(C2)CC1C3)C(=O)NC(CO)Cc1ccccc1 (stereo not drawn) [Example 15, [R-(R*,S*)]-Tricyclo[3.3,1.1^3,7]dec-2-yl-[2-[[1-(hydroxymethyl)-2-phenylethyl]amino]-1-(1H-indol-3-ylmethyl)-1-methyl-2-oxoethyl]carbamate] | 15.7 | – |
| 63 | CC(Cc1c[nH]c2ccccc12)(NC(=O)OC1C2CC3CC(C2)CC1C3)C(=O)NCC(OC(=O)CCC(=O)O)c1ccccc1 (centres unmarked) [Example 17, 2-[[3-(1H-indol-3-yl)-2-methyl-1-oxo-2-[[(tricyclo-[3.3.1.1.^3,7]dec-2-yloxy)carbonyl]amino]propyl]amino]-1-phenylethyl butanedioate] | 13.1 | – |
| 3.9 | CC1CCCCC1OC(=O)NC(C)(Cc1c[nH]c2ccccc12)C(=O)NCC(NC(=O)CCC(=O)O)c1ccccc1 (single isomer, unassigned) [Example 40, Butanoic acid, 4-[[2-[[3-(1H-indol-3-yl)-2-methyl-2-[[[(2-methyl-1-cyclohexyl)oxy]carbonyl]amino]-1-oxopropyl]amino]-1-phenylethyl]amino]-4-oxo-[1R-[1α[R*(R*)]2β]]-((-)-isomer)] | – | – |
| 10500 | CC(Cc1c[nH]c2ccccc12)(NC(=O)O[C@@H]1CCCC[C@H]1Cl)C(=O)NC(CO)Cc1ccccc1 (mixture of isomers) [Example 14, (±)-trans-2-Chlorocyclohexyl-[2-[[1-(hydroxymethyl)-2-phenylethyl]amino]-1-(1H-indol-3ylmethyl)-1-methyl-2-oxoethyl]carbamate] | 19.5 | – |
| 8800 | CC(Cc1c[nH]c2ccccc12)(NC(=O)OC1CC2CCC1C2)C(=O)NCCc1ccccc1 (racemic) [Example 10, (±)-Endo-bicyclo[2.2.1]hept-2-yl [1-(1H-indol-3-ylmethyl)-1-methyl-2-oxo-2-[(2-phenylethyl)amino]ethyl]carbamate] | – | – |
| – | C[C@](Cc1c[nH]c2ccccc12)(NC(=O)OC1CC2CC3CC(C2)C1C3)C(=O)N[C@H](CO)Cc1ccccc1 (some centres unmarked) [Example 11] | – | 54 |
| 85 | CC(Cc1c[nH]c2ccccc12)(NC(=O)OC1CC2CC3CC(C2)C1C3)C(=O)NC(COC(=O)CCC(=O)O)Cc1ccccc1 (centres unmarked) [Example 12, 2-[3-1H-indol-3-yl)-2-methyl-2-[[[(octahydro-2,5-methano-1H-inden-7-yl)oxy]carbonyl]amino]-1-oxopropyl]-3-phenylpropyl butanedioate] | – | – |
| 2230 | C[C@](Cc1c[nH]c2ccccc12)(NC(=O)CC12CC3CC(CC(C3)C1)C2)C(=O)N[C@H](CO)Cc1ccccc1 (relative stereo) [Example 5, [R-(R*,S*)]-N-[1-(hydroxymethyl)-2-phenylethyl]-α-methyl-α-[[tricyclo[3.3.1.1^3,7]dec-1-ylacetyl)-amino]-1H-indole-3-propanamide] | 33.6 | – |
| 14 | CC(Cc1c[nH]c2ccccc12)(NC(=O)OC1C2CC3CC(C2)CC1C3)C(=O)NC(CNC(=O)CCC(=O)O)Cc1ccccc1 (stereo not drawn) [Example 19, [R-(R*,S*)]-4-[[2-[[3-(1H-indol-3-yl)-2-methyl-1-oxo-2-[[(tricyclo[3.3.1.1^3,7]dec-2-yloxy)carbonyl]amino]propyl]amino]-3-phenylpropyl]amino]-4-oxobutanoic acid] | – | – |
| 0.29 | CC1CCCCC1OC(=O)NC(C)(Cc1c[nH]c2ccccc12)C(=O)NCC(NC(=O)C=CC(=O)O)c1ccccc1 (single isomer, unassigned) [Example 41, 2-Butenoic acid, 4-[[2-[[3-(1H-indol-3-yl)-2-methyl-2-[[[(2-methyl-1-cyclohexyl)oxy]carbonyl]amino]-1-oxopropyl]amino]-1-phenylethyl]amino]-4-oxo-, [1R -[1α[R*(R*)], 2β]]-((-)-isomer)] | – | – |
| 260 | CC(Cc1c[nH]c2ccccc12)(NC(=O)O[C@@H]1CCCC[C@H]1Cl)C(=O)NC(CO)Cc1ccccc1 (mixture of isomers) [Example 3, (±)-Trans-2-chlorocyclohexyl [2-[[1-(hydroxymethyl)-2-phenyethyl]amino]-1-(1H-indol-3-ylmethyl)-1-methyl-2-oxoethyl]carbamate. (D-tryptophan residue; L-phenylalanine residue).] | 30.7 | – |
| 840 | CC(Cc1c[nH]c2ccccc12)(NC(=O)OC1CC2CCC1(C)C2(C)C)C(=O)NCCc1ccccc1 (racemic) [Example 8, (±)-Exo-1,7,7-trimethylbicyclo[2.2.1]hept-2-yl-[1-(1H-indol-3-ylmethyl)-1-methyl-2-oxo-2-[(2-phenylethyl)amino]ethyl]-carbamate] | – | – |
| – | CC(Cc1c[nH]c2ccccc12)(NC(=O)O[C@@H]1CCCC[C@H]1Cl)C(=O)NCCc1ccccc1 (mixture of isomers) [Example 2, (±)-Trans-2-chlorocyclohexyl [1-(1H-indol-3-ylmethyl)-1-methyl-2-oxo-2-[(2-phenylethyl)amino]ethyl]carbamate] | 9.6 | 3150 |
| 0.08 | CC(Cc1c[nH]c2ccccc12)(NC(=O)OC1C2CC3CC(C2)CC1C3)C(=O)NC(CNC(=O)C=CC(=O)O)Cc1ccccc1 (stereo not drawn) [Example 19A, [R-(R*,S*)]-4-[[2-(1H-Indol-3-yl)-2-methyl-1-oxo-2-[[tricyclo[3.3.1.1^3,7]dec-2-yloxylcarbonyl]amino]propyl]-amino]-3-phenylpropyl]amino]-4-oxo-2-butenoic acid] | – | – |
| 760 | CC(Cc1c[nH]c2ccccc12)(NC(=O)OC1CC2CCC1(C)C2(C)C)C(=O)NCCc1ccccc1 (racemic) [Example 7, (±)-Endo-1,7,7-trimethylbicyclo[2.2.1]hept-2-yl-[1-(1H-indol-3-ylmethyl)-1-methyl-2-oxo-2-[(2-phenylethyl)amino]ethyl]-carbamate] | – | – |
| 170 | CC(Cc1c[nH]c2ccccc12)(NC(=O)OC1CCCCC1Cl)C(=O)NC(COC(=O)CCC(=O)O)Cc1ccccc1 (centres unmarked) [Example 4, 2-[[2-[[[2-chlorocyclohexyl)oxy]-carbonyl]amino]-3-(1H-indol-3-yl)-2-methyl-1-oxo-propyl]amino]-3-phenylpropyl butanedioate] | > 20 | – |
| 4 | CC1CCCCC1OC(=O)NC(C)(Cc1c[nH]c2ccccc12)C(=O)NC(CNC(=O)C=CC(=O)O)Cc1ccccc1 (single isomer, unassigned) [Example 43, 2-Butenoic acid, 4-[[2-[[3-)1H-indol-3-yl)-2-methyl-2-[[[(2-methyl-1-cyclohexyl)oxy]carbonyl]amino]-1-oxopropyl]amino]-3-phenylpropyl]amino]-4-oxo-[IR[1α[R*(S*)], 2β]]-((-)-isomer)] | – | – |
| 7500 | CC(Cc1c[nH]c2ccccc12)(NC(=O)OC1CC2CCC1C2)C(=O)NCCc1ccccc1 (racemic) [Example 9, (±)-Exo-bicyclo[2.2.1]hept-2-yl [1-(1H-indol-3-ylmethyl)-1-methyl-2-oxo-2-[(2-phenylethyl)amino]ethyl]carbamate] | – | – |

| SMILES | Ki (Central CCK Receptors; [2]) [nM] | Inhibition of Feeding on Rat Palatable Diet Assay I.P. MPE50 [1] [mg/kg] | Ki (Central CCK Receptors) [nM] |
| --- | --- | --- | --- |
| CC(Cc1c[nH]c2ccccc12)(NC(=O)OC12CC3CC(CC(C3)C1)C2)C(=O)NCCc1ccccc1 (racemic) [Example 1, (±)-Tricyclo[3.3.1^3,7]dec-1-yl [1-(1H-indol-3-ylmethyl)-1-methyl-2-oxo-2-[(2-phenylethyl)amino]ethyl]carbamate] | 1230 | – | – |
| CC(Cc1c[nH]c2ccccc12)(NS(=O)(=O)CC12CCC(CC1=O)C2(C)C)C(=O)NC(CO)Cc1ccccc1 (stereo not drawn) [Example 18, α-[[[(7,7-dimethyl-2-oxobicyclo[2.2.1]-hept-1-yl)-methyl]sulfonyl]amino]-N-[1-(hydroxymethyl)-2-phenylethyl]-α-methyl-1H-indole-3-propanamide-(Trpcenter R, phenylalanylcenter S)] | 21000 | – | – |
